Laboratory results as given in PubChem BioAssay AID463229 (Broad Institute, 2010).
Values joined by “and” are separate entries in the source; they are usually repeats but may differ in a detail not shown here. Identical values can stand only once. Active and inactive are the calls of the source.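 Rule for the calls: active = compounds raising the signal whose fitted half-maximal concentration is at or below their top tested dose (cut at about 25 µM in these data); inconclusive = flat fit at 30 to 70% activity, or a poor fit; inactive = the rest.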

tested on: INS-1E rat beta cells, no cytokines, CellTiter-Glo ATP, 48 h; experiment: ATP level change in INS-1E without cytokines, dose response, counter-screen for beta-cell apoptosis protection project, INS-1E rat cells, ATP luminescence, cherry pick (AID 463229)

| Compound | AC50 |
| --- | --- |
| Fc1ccc(CN(Cc2ccccc2)C(c2cccs2)c2nnnn2C2CCCCC2)cc1 (centres undefined) | 5.93 µM |
| COc1ccc(Cc2nnc(N/N=C/c3ccccc3O)[nH]c2=O)cc1OC | 4.32 µM |
| C[n+]1c2n(c3ccccc31)N=C(c1ccc(Cl)cc1)CS2 | 4.29 µM |
| Cc1ccc(C)c(NC(=O)/C(C#N)=C/c2cn(CC(=O)NCc3ccco3)c3ccccc23)c1 | 5.47 µM |
| CCN(Cc1ccccc1)C(c1cccs1)c1nnnn1C1CCCCC1 (centres undefined) | 13.4 µM |
| CCN(CC)CCNC(=O)c1ccc(NC(=O)c2cn(-c3ccccc3)nc2-c2cccs2)cc1 | 15.7 µM |
| CC(=O)c1c(C)oc2ccc(N(C(C)=O)S(=O)(=O)c3cccc4cccnc34)cc12 | 7.79 µM |
| COC(=O)c1c(C)oc2ccc(N(C(=O)c3ccncc3)S(=O)(=O)c3ccc4ccccc4c3)cc12 | 17.9 µM |
| CCOC(=O)C1CCN(Cc2ccc(O)c3ncccc23)CC1 | 12.5 µM |
| COc1ccc(C)cc1Nc1n[n+](-c2ccccc2)c(-c2ccc(N(C)C)cc2)s1 | 2.9 µM |
| COc1ccc(/C=N/Nc2cc(C)nc(-n3nc(C)cc3C)n2)c(OC)c1 | 18.4 µM |
| CCCCCCSc1cccc(-c2nc3ccccn3c2NCc2ccccc2)c1 | 6.25 µM |
| COc1ccc(NS(=O)(=O)c2cccc(NC(=O)c3ccc(S(=O)(=O)N4CCCCCC4)cc3)c2)cc1 | 4.24 µM |
| CCOC(=O)CS(=O)(=O)c1nc(-c2ccccc2)cc(C(F)(F)F)n1 | 8.1 µM |
| CCc1nnc(NC(=O)c2cccc(C(=O)Nc3nnc(CC)s3)n2)s1 | 2.98 µM |
| Nc1c(C(=O)Nc2ccc(S(=O)(=O)N3CCCC3)cc2)sc2nc3cc4c(cc3cc12)CCC4 | 4.63 µM |
| Oc1c(Br)cc(Br)cc1/C=N/NC(=S)N[C@H]1CC2C=CC1C2 (some centres undefined) | 12.1 µM |
| CC1CCC(C(C)C)C(OC(=O)Cn2c(COc3ccccc3)[n+](C)c3ccccc32)C1 (centres undefined) | 7.08 µM |
| O=C1C=C(Nc2ccc(F)cc2)c2ccccc2C1=O | 7.19 µM |
| CC[N+]1=C(C)C(C)(C)c2cc(C)ccc21 | 8.15 µM |
| Cc1cc2nc(-c3ccc(NC(=O)c4cccnc4)cc3)oc2cc1C | 9.26 µM |
| CCN1/C(=C/c2ccc3cc(C)ccc3[n+]2CC)Sc2ccc3sccc3c21 | 0.316 µM |
| Cc1ccc2[nH]cc(/C=C/c3cc[n+](C)cc3)c2c1 | 5.46 µM |
| O=C(/C=C/c1ccc(-c2ccccc2)cc1)NCc1cccnc1 | 9.36 µM |
| Cc1ccc(C)n1-c1ccc(C(=O)Nc2ccccc2)cc1 | > 26 µM (inactive) |
| CCn1c(C)nc2cc(-c3nnc(-c4c(-c5ccccc5)noc4C)o3)ccc21 | 5.18 µM |
| CCN1c2ccccc2N(C)C1(C)c1ccccc1 (centres undefined) | 4.56 µM |

| Compound | AC50 |
| --- | --- |
| C(=N\Nc1ncnc2sc3c(c12)CCC3)/c1cccs1 | 9.08 µM |
| Nc1nc(-c2ccccn2)nc(N)c1Cc1ccc(Cl)cc1Cl | 11.9 µM |
| CC(C)(C)c1ccc(C2CC2C(=O)N/N=C\c2ccc[nH]2)cc1 (centres undefined) | 0.987 µM |
| COc1ccc(CNCCc2c(C)[nH]c3ccc(OC(F)(F)F)cc23)c(OC)c1 | 6.6 µM |
| Oc1c(C(c2ccccc2Cl)N2CCCC2)ccc2cccnc12 (centres undefined) | 7.11 µM |
| O=C(CCCCCCCCCCC(=O)NCc1cccnc1)NCc1cccnc1 | < 0.195 µM |
| CCN1CCN(Cc2ccc(NC(=O)c3cc(NC(=O)C(=O)c4c[nH]c5ccccc45)cc(OC)c3)cc2C(F)(F)F)CC1 | 7.12 µM |
| Cc1ccc(NC(=O)c2c(C(F)(F)F)nn(C)c2SCc2cccc(C(F)(F)F)c2)cc1C | 11.8 µM |
| CCCOc1cc(NCc2ccccc2)c2ncn(C(C)C)c2c1 | 7.28 µM |
| Cc1cccc(NC(=O)Nc2cccc(Oc3c(F)c(F)c(F)c(F)c3F)c2)c1 | 6.96 µM |
| Cc1nnc(N=c2ssnc2Cl)o1 | 13.6 µM |
| Cc1nc2c(-c3ccc(Cl)cc3)c(C)[nH]n2c(=O)c1Cc1ccccc1 | 5.46 µM |
| Cn1cc(/C=C/c2cc[n+](C)cc2)c2cc(Cl)ccc21 | 4.85 µM |
| Cc1cccc2cc(-c3ccccc3)c(-c3ccccc3)c[n+]12 | 4.21 µM |
| CCCCCCCCCCOC(=O)Cn1c(COc2ccc(OC)cc2)[n+](C)c2ccccc21 | 4.96 µM and 3.95 µM |
| CN(C)CCCNS(=O)(=O)c1ccc(NC2CCCCCC2)c([N+](=O)[O-])c1 | 7.27 µM |
| CCS(=O)(=O)c1ncc(Cl)c(C(=O)Nc2ccc(S(=O)(=O)N3CCCC(C)C3)cc2)n1 (centres undefined) | 6.96 µM |
| O=C(CSC1=NCCS1)Nc1ccnc2ccccc12 | 12.5 µM |
| FC(F)(F)c1ccc(CN2C[C@@H]3C(c4ccc(C(F)(F)F)cc4)C4(c5cccnc5)CC3(C4)[C@H]2c2ccccc2)cc1 (some centres undefined) | 5.15 µM |
| Cc1cc(C)nc(N/N=C/c2cc(Br)ccc2O)n1 | 12.6 µM |
| Clc1cccc(N=C2NN=C(c3ccc4c(c3)OCCO4)CS2)c1 | 1.76 µM |
| c1cnc(N2CCN(Cc3c[nH]c4ccccc34)CC2)nc1 | 4.83 µM |
| C=CCSc1nc2ccccc2n1C(=O)/C=C/c1ccc(OC)c(OC)c1 | 11 µM |
| COc1ccc(O)c(/C=N/NC(=O)c2cccc(N3CCCC3=O)c2)c1 | 14.8 µM |
| CCn1c(C)c(C)c2cc(C(=O)N3CCc4ccccc4C3)ccc21 | 3.14 µM |
| CC(C)(C)c1ccc(OCc2ccc(C(=O)N/N=C/c3ccc(O)c(O)c3)cc2)cc1 | 8.35 µM |
| O=C(C1=C[C@@H](c2ccc(C(F)(F)F)cc2)C[C@@H](OCCCCO)O1)N1CCN(Cc2ccccc2)CC1 | 12.6 µM |
